In one experiment the test system is HEL-GFP cells. In words: Xenograft model of human AML, HEL-GFP cells in NSG mice. The experiment is classed as in vivo. How it is done:
The xenograft model of human AML used relies in the intra-bone marrow injection of 5×10^5 HEL-GFP cells into the right tibia of previously irradiated (200 rad) NSG mice. Upon tumor trigger in the blood mouse are randomly assigned for treatment with 1 (50 mg/kg intra-peritoneal) or vehicle.
(In general: A xenograft is tissue or cells of one species grown in another, often human tumour cells in immunodeficient mice.)

The next experiment has as its system HL-60 cells. In words: HL-60 cell viability with and without DMSO differentiation (Alamar Blue). The experiment is classed as cell-based. The note with it: Homo sapiens, 48 hours, n=1. How it is done:
Cells were fixed with […] BD fix buffer while vortexing. […] After the required incubation time, cells were washed and incubated for another hour with goat anti-rabbit Alexa fluor 488 antibody. Cells are then washed and resuspended in PBS and acquired by LSRFortessa™ flow cytometer (BD Biosciences, USA) with a 488 nm laser, a 505 nm long-pass filter and a 530/30 nm band-pass filter (for FITC detection). Data was analyzed using the FlowJo software. […] Cells were treated with varying concentration of β-lapachone for a time period of 48 hours. Cell death was analyzed using standard Alamar Blue assay. Data is represented after being normalized to the vehicle control.

Experiment [1] concerns Staphylococcus aureus ATCC 25923. In words: MIC/MBC assay, S. aureus. It counts as cell-based. How it is done:
Escherichia coli K12 and Staphylococcus aureus ATCC 25923 were grown overnight at 37° C. and re-inoculated in 24-well plates containing 2.5 mL of Luria Bertani medium (LB) to give an optical density of ˜0.01 at 600 nm. Stock solutions of β-lapachone, and lapachol were prepared in DMSO (1% final concentration) and added to the cell suspensions to obtain final concentrations between 5-210 μM. Wells containing a growth control (cell suspensions with 1% DMSO) and a sterile media control were also prepared. The plates were incubated for 18 h at 37° C. and 90 r.p.m. The concentration of compound in the first well in the series that presented no sign of visible growth was reported as the MIC. The OD600 of the cultures was also measured. All the MIC wells were serially diluted in phosphate buffer saline (PBS) and plated onto LB agar plates.

Experiment [2] deals with T1, 5-LO (Homo sapiens, UniProt P09917).
T1 sequence (P09917 1-674): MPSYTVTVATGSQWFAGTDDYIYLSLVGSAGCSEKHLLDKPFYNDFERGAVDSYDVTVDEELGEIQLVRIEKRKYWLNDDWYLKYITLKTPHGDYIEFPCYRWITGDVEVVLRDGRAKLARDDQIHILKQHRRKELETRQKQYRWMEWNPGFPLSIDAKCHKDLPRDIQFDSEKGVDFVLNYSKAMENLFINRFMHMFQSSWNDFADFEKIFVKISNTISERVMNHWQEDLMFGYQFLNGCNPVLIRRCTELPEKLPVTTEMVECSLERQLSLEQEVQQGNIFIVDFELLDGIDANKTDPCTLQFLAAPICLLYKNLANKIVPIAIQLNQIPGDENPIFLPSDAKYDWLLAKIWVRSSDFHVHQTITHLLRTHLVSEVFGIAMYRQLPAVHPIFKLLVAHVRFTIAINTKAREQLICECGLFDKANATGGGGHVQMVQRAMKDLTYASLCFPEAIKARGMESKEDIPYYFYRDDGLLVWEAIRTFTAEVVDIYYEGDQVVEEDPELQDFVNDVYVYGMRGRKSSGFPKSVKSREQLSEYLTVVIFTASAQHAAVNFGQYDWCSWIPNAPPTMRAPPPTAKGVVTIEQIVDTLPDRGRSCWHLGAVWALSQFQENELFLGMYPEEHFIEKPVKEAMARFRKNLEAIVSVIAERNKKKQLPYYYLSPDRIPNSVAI
In words: 5-LO product formation in intact human neutrophils. The experiment is classed as cell-based. Set-up: endogenous in cells; host or cells: neutrophils isolated from peripheral blood of healthy adult volunteers; intact or sonicated homogenates. On the procedure:
Peripheral blood (University Hospital Jena, Germany) was withdrawn from healthy adult volunteers with consent that had not taken any anti-inflammatory drugs during the last 10 days, by venipuncture in heparinized tubes (16 IE heparin/mL blood). The blood was centrifuged at 4000 g for 20 min at 20° C. for preparation of leukocyte concentrates. Leukocyte concentrates were then subjected to dextran sedimentation and centrifugation on lymphocyte separation medium (LSM 1077, PAA, Colbe, Germany). Contaminating erythrocytes of pelleted neutrophils were removed by hypotonic Iysis. […]
Method B. For determination of 5-LO products in intact neutrophils, the cells (5×10^6) were resuspended in 1 mL PGC buffer, preincubated for 15 min at 37° C. with β-lapachone or vehicle (0.1% DMSO), and incubated for 10 min at 37° C. with 2.5 μM Ca^2+-ionophore A23187 plus 20 μM AA. […] 5-LO products (LTB4, tr-LTB4 isomers, and 5-HETE), were analyzed by RP-HPLC and quantities calculated on the basis of the internal standard PGB1. Cysteinyl-LTs C4, D4 and E4 were not detected (amounts were below detection limit), and oxidation products of LTB4 were not determined.
Data are expressed as mean±S.E.M. IC50 values were calculated from averaged measurements at 6 different concentrations of the compound by nonlinear regression using GraphPad Prism software (San Diego, Calif.) one site binding competition. […]

A further experiment deals with EP4 (Homo sapiens, UniProt P35408). Briefly: Prostanoid EP4 receptor activation, functional assay. The settings on record: 150 μM. The experiment is classed as cell-based.
Chain of EP4 (P35408 whole entry): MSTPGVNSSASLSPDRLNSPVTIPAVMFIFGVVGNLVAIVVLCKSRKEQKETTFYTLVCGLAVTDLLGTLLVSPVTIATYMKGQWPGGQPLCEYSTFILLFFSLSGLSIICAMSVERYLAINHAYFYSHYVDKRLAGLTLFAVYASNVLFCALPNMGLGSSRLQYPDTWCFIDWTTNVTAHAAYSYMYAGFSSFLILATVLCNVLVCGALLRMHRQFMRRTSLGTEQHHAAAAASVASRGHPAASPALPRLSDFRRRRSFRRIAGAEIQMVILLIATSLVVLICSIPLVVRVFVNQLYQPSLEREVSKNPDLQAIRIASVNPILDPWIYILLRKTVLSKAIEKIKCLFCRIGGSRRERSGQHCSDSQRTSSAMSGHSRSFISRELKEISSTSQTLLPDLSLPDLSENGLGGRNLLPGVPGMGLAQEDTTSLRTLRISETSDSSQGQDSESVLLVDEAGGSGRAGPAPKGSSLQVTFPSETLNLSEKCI
Experiment [3] concerns the target T1, 5-LO. In words: Circular dichroism binding, protein melting curves. On the technique in general: Circular dichroism is the unequal absorption of left and right circularly polarised light.

Structures are written as SMILES. In brackets after ≈: the same amount, converted by molar mass. Like-named read-outs stand apart in the source and are kept apart here. A value given as a limit tells only on which side of the number the result lay.

As for `CC1(C)CCC2=C(O1)c1ccccc1C(=O)C2=O` [Compound 1, 3,4-dihydro-2,2-dimethyl-2H-naphtho[1,2-b]pyran-5,6-dione], in the experiment with HEL-GFP cells (50 mg/kg intra-peritoneal), the Overall survival entry is “significantly increased overall survival”. Also, the “Tumour burden in the blood” value in the experiment on HEL-GFP cells (50 mg/kg intra-peritoneal, day 9) was “tendency for lower burden”. Moreover, the “Tumour burden in organs (liver, spleen and lung)” value with HEL-GFP cells (longest-living treated mouse, sacrificed at day 30, versus non-treated controls) is on record as “lower tumour burden in all the analysed organs”. Further, the IC50 in the experiment with HL-60 cells (DMSO-stimulated HL-60 cells overexpressing 5-LO, read-out: IC50 (differentiated), HL-60) amounted to 180 nM; in the experiment with HL-60 cells (control HL-60 cells, read-out: IC50 (control), HL-60) it was 390 nM; at 5-LO [2] (1 mM DTT, n=4, read-out: IC50, 5-LO activity in intact human neutrophils supplemented with DTT), 420 nM; on 5-LO [2] (without DTT, A23187 plus arachidonic acid, n=3, read-out: IC50 (5-LO), intact human neutrophils), 8600 nM. In addition, in experiment [1] (ATCC25923, 18 h, read-out: Minimum inhibitory concentration), the MIC stood at 60 µM (≈ 14.5 µg/mL). Also, the MBC in experiment [1] (ATCC25923, read-out: Minimum bactericidal concentration) is > 200 µM. The EP4 activation at EP4 is listed as 53%. Further, binding at 5-LO [3] was put at a Kd of 5700 nM.

For orientation: IC50 means the concentration that gives 50% inhibition. By Kd is commonly meant the concentration at which binding is half-saturated. Low values mean tighter binding, high ones weaker binding.
